Legend:
[1] = Biodistribution in 4T1 tumor-bearing mice; format: in vivo, BALB/c mice; settings: 24 h after i.v., Cy5.5-labeled; 500 mg/kg (Figure 7), 300 mg/kg; n = 6
Procedure: Animal experiments were approved by the Institutional Animal Care and Use Committee of Tokyo Medical and Dental University. Wild-type BALB/c mice (female, 8-weeks-old) were purchased from Japan SLC (Shizuoka, Japan). Cy5.5-labeled PRXs and CDs were intravenously administered to the mice at a dose of 300 mg/kg. After 24 h, the mice were anesthetized with an intraperitoneal injection of an anesthetized solution containing medetomidine hydrochloride (0.75 mg/kg), midazolam (4 mg/kg), and butorphanol tartrate (5 mg/kg). […] The mice were then perfused with saline, and the hearts, livers, lungs, spleens, kidneys, and tumors were harvested. The collected tissues (approximately 50 mg) were homogenized using a bead beater-type homogenizer (Beads Crusher μT-12; Taitec, Saitama, Japan) at 3000 rpm for 45 s. After centrifuging the homogenates (8000 rpm, 10 min), the supernatant was collected. The fluorescence intensities of the plasma and tissue homogenates were measured using Varioskan LUX at excitation and emission wavelengths of 673 and 707 nm, respectively. The amount of accumulated PRXs in the plasma and each tissue was calculated using the standard curve of Cy5.5-labeled Me-PRXs and Me-β-CDs, and the mean percentage of the injected dose per gram of tissue (ID %/g tissue) was determined for each sample.

[2] = system: various cells, such as normal cells and apoptosis-resistant cells; settings: through interactions with cellular cholesterol; cited from earlier work
From the text: Β-Cyclodextrin (β-CD) is a cyclic oligosaccharide comprising seven glucose units connected with α-1,4-linkages. Β-CD and its derivatives can incorporate various low-molecular-weight compounds, such as free cholesterol, into their hydrophobic cavity. […] 3-Methyladenine (3-MA) is a commonly used inhibitor of autophagy that functions by inhibiting class III phosphoinositide 3-kinase (PI3K) activity, which plays a pivotal role in autophagy induction. […] To exclude the effects of 3-MA on 4T1 cell viability, cRGD-Me-PRX-t ...

[3] = Cholesterol solubilization (phase solubility); format: physicochemical; settings: pH 7.4, 24 h, 37 °C, n = 3
Procedure: Figure 2 (A) ^1H NMR spectra of Me- N3-PRX and cRGD-Me-PRX in D2O at 25 °C. (B) FT-IR spectra of Me-N3-PRX and cRGD-Me-PRX. (C) Time course of the cleavage of N-Trt end groups in Me-PRX, cRGD-Me-PRX, and cRGE-Me-PRX at pH 7.4 (open symbols) and pH 5.0 (closed symbols) at 37 °C. The data are expressed as the mean ± SD (n = 3). (D) Phase-solubility diagrams of cholesterol with Me-β-CD, cRGD-Me-β-CD, Me-PRX, cRGD-Me-PRX, and cRGE-Me-PRX at pH 7.4 (brown bars) and pH 5.0 (blue bars). The solubility of cholesterol was determined after incubation for 24 h at 37 °C. The data are expressed as the mean ± SD (n = 3; **** p < 0.0001; ns: not significant).
Another important aspect of Me-PRXs is the ability of released β-CDs to form an inclusion complex with intracellular cholesterol, because the interaction with intracellular cholesterol contributes to the induction of cell death. To assess this, the solubility of cholesterol was measured by incubating with Me-PRXs at pH 7.4 (physiological pH) and 5.0 (lysosomal pH) for 24 h was measured (Figure 2D). […] Additionally, the number of methyl groups of cRGD-Me-β-CD (12.5) was less than that of Me-β-CD (14.0), which may explain the reduced cholesterol solubilization capacity.

Blood chemical analysis = format: in vivo, BALB/c mice; settings: 500 mg/kg i.v., 24 h
Procedure: The PRXs dissolved in PBS were intravenously administered at a dose of 500 mg/kg to female BALB/c mice (8 weeks). […] Plasma levels of blood urea nitrogen (BUN), creatinine (CRE), aspartate aminotransferase (AST), alanine aminotransferase (ALT), free cholesterol (F-CHO), cholesteryl esters (E-CHO), triglycerides (TG), and glucose (GLU) were measured using a Hitachi 7180 automatic analyzer (Hitachi, Tokyo, Japan). In addition, the mice were perfused with saline, and the major organs (heart, liver, spleen, lungs, and kidneys) were collected. The organs were fixed in 10% formalin solution for 1 d and embedded in paraffin. The paraffin blocks were cut into 3 μm sections, which were successively stained with H&E solution to assess histological alterations by bright-field microscope.

[4] = among various β-CD derivatives; cited from earlier work
From the text: Β-Cyclodextrin (β-CD) is a cyclic oligosaccharide comprising seven glucose units connected with α-1,4-linkages. Β-CD and its derivatives can incorporate various low-molecular-weight compounds, such as free cholesterol, into their hydrophobic cavity. Recently, the therapeutic applications of β-CD derivatives have received considerable attention, because they improve the pathology of various metabolic diseases, such as Niemann–Pick type C (NPC) disease, Alzheimer’s disease, and atherosclerosis, through the removal of excess free ch ...

4T1 cells = experiment: Autophagic cell death: viability of 4T1 cells with 3-MA; format: cell-based, murine; settings: 2 mM 3-MA, 48 h
Procedure: To investigate the induction of autophagic cell death by cRGD-Me-PRXs, 4T1cells were pretreated with 2 mM 3-methyladenine (3-MA; Fujifilm Wako Pure Chemical) for 1 h, followed by treatment with cRGD-Me-PRXs (100 μM threaded β-CD) in the presence of 3-MA for 48 h at 37 °C. Cell viability was determined as described above.

[5] = system: integrin αv (Itgav) mRNA in 4T1 cells; experiment: Downregulation of integrin αv by siRNA (RT-PCR); format: cell-based, murine; settings: compared with siControl; 30 nM, 24 h, normalized to Gapdh, n = 4
Procedure: siRNAs against murine integrin subunit alpha V (siItgav; sense: 5′-[…]-3′, antisense: 5′-[…]-3′) and Mission siRNA universal negative control were purchased from Merck. The siRNAs were transfected into 4T1 cells using the Lipofectamine 3000 Transfection Reagent (Thermo Fisher Scientific) at 30 nM for 24 h according to the manufacturer’s instructions. Total RNA was extracted from 4T1 cells using the FastGene RNA Premium Kit (Nippon Genetics, Tokyo, Japan) following the manufacturer’s instructions. The total RNA concentration was measured using a NanoDrop One spectrophotometer (Thermo Fisher Scientific). Total RNA was then converted into cDNA using ReverTra Ace qPCR RT master mix (Toyobo, Osaka, Japan). RT-PCR was performed using the Thunderbird SYBR qPCR mix (Toyobo) on a CFX Connect Real-Time System (Bio-Rad, Hercules, CA, USA). The PCR primer sequences were as follows: murine integrin subunit alpha V (Itgav), forward: 5′-[…]-3′, reverse: 5′-[…]-3′, murine glyceraldehyde 3-phosphate dehydrogenase (Gapdh) forward: 5′-[…]-3′, reverse: 5′-[…]-3′. The PCR cycling conditions included a pre-denaturation at 95 °C for 1 min, followed by 40 cycles of denaturation at 95 °C for 15 s and extension at 60 °C for 30 s. The mRNA expression levels in each sample were determined by the comparative CT (ΔΔCT) method and were normalized to the expression levels of Gapdh.

Compound: Randomly methylated β-CD [Me-β-CD]
- accumulation in kidney [1]: mostly accumulated in the kidney
- apoptosis [2]: induced apoptosis
- solubilization of cholesterol [3]: solubilization of cholesterol was observed
- hepatic and renal toxicity (Blood chemical analysis): hepatic and renal toxicities
- plasma AST (Blood chemical analysis; n = 6): increased
- plasma BUN (Blood chemical analysis; n = 6): increased
- plasma CRE (Blood chemical analysis; n = 6): increased
- ability to form inclusion complexes with free cholesterol [4]: highest ability to form inclusion complexes with free cholesterol

Compound: Cn1cnc(N)c2ncnc1-2 [3-MA, 3-methyladenine]
- effect on 4T1 cell viability alone (4T1 cells): did not affect cell viability

Compound: siItgav: siRNA against murine integrin subunit alpha V; sense: 5′-GACUUAGUUGUAGGAGCUU-3′, antisense: 5′-AAGCUCCUACAACUAAGUC-3′ (chemistry not given here)
- expression level of integrin αv [5]: 32.9%

Reference: publication PMC10886891, “Enhanced Tumor Targeting and Antitumor Activity of Methylated β-Cyclodextrin-Threaded Polyrotaxanes by Conjugating Cyclic RGD Peptides” (Biomolecules, 2024)
